# Measurements from patent US9643933B2, “Compounds useful as antibiotic tolerance inhibitors” (priority 2013, dated 2017).
# Read-outs that look alike come from different tables or passages of the source.
# Experiments:
# HHQ = assay: Assay for HHQ Inhibition (6 Hour Incubation); format: cell-based, P. aeruginosa PA14 wild-type strain
# Experimental: A concentration range with 7 test concentrations is chosen for each test compound. Typically concentration ranges for the PQS and HHQ assays are from 0.03 to 31.6 μM. Compounds are prepared in solvent, usually DMSO, at either 200 or 500 times the final test concentration.
# P. aeruginosa PA14 wild-type strain is inoculated into 5 ml LB broth in a 15 ml sterile glass culture tube and incubated overnight at 37° C. under shaking (˜240 rpm). After overnight incubation, the bacterial culture is diluted in fresh LB broth to an OD600 nm=0.04, and 5 mL aliquots of the diluted bacterial culture are distributed into 15-mL glass tubes. 10 μL of test compound at 500 times the final test concentration or 25 μL of test compound at 200 times the final test concentration or solvent alone is added to each of the bacterial suspension tubes, and the tubes are incubated at 37° C. under shaking (300 rpm) for 6 hours. At the end of the incubation period, a 0.5 mL aliquot of bacterial suspension is transferred from each 15 mL glass tube, after shaking, to a 2 mL polypropylene vial. 0.5 mL of methanol-containing D4-PQS (deuterated-PQS), D4-HHQ (deuterated-HHQ) and 2% acetic acid are added to each 2 mL vial and each vial is vigorously shaken. The vials are then centrifuged for 5 minutes at 12,000 g, and 200 μL of supernatant from each vial is transferred to a glass vial (vials crimp 0.2 mL), and the sealed vials are kept at 4° C. until LC-MS/MS analysis is performed. HAQs quantification is carried out analyzing samples in discrete batches together with spiked standards and blank samples. Calibration curves are constructed from HAQs standards, and respective deuterated forms are used as Internal Standards (IS), to calculate the concentration of analytes in the sample and improve the precision of the assay. The back-calculated concentrations of the calibration standards from the calibration curve shall be within ±20% of the nominal values, the range of the analytical method is determined, and the lower and upper limit of quantification specified.
# Liquid chromatography separations are performed using Agilent HP1100 system (Agilent Technologies) coupled with a CTC PAL Autosampler (CTC Analytics AG). Chromatographic retention is obtained using a monolithic column (Chromolith® RP-18, 50×4.6 mm). The solvent system consists of water containing 0.1% (v/v) formic acid (A) and acetonitrile containing 0.1% (v/v) formic acid (B). The gradient elution profile is chosen as follows: 0 min: 70% A (1500 μL/min), 0.3 min: 70% A (1500 μL/min), 1.3 min: 5% A (2500 μL/min), 1.6 min: 5% A (2500 μL/min).
# The MS/MS analysis is performed with a API4000 series mass spectrometer (AB Sciex™) operating in Multiple Reaction Monitoring (MRM) mode and equipped with a TIS ion source. The specific ions monitored are PQS (m/z 260→m/z 175), D4-PQS (m/z 264→m/z 179), HHQ (m/z 244→m/z 159) and D4-HHQ (m/z 248→m/z 163). PQS and HHQ in presence of different test compound concentrations are expressed as percentage of inhibition of the basal level in control samples.
# Pyocyanin = Pyocyanin Inhibition Assay; format: cell-based, P. aeruginosa, strain PA14
# In short: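 P. aeruginosa PA14 at OD600=0.04 in LB grown 24 h at 37° C with shaking alongside compound (0.0032-31.6 micromolar, seven points, 0.5% DMSO final). Pyocyanin in supernatant quantified from A690 (ε 4,310 M^−1 cm^−1); % inhibition versus untreated culture, IC50 by four-parameter logistic fit.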
# [1] = Pseudomonas aeruginosa, PA14, 6 h, read-out: HHQ (6 hr) IC50 (μM)
# [2] = Pseudomonas aeruginosa, PA14, 24 h, read-out: Pyocyanin Inhibition No. IC50 (μM)
Compound,IC50 (HHQ; [1]),IC50 (Pyocyanin; [2]),"IC50 (HHQ; P. aeruginosa PA14 culture, 6 hours incubation, HHQ by LC-MS/MS, read-out: HHQ (6 hr) IC50)","IC50 (Pyocyanin; P. aeruginosa PA14 culture, 24 hours at 37° C., pyocyanin in supernatant by absorbance at 690 nm, read-out: Pyocyanin Inhibition No. IC50)"
N#Cc1ccc(NC(=O)CSc2nc3cc(Cl)ccc3[nH]2)cc1 [Compound 125],< 1 µM,< 0.1 µM,,
O=C(CSc1nc2ccc(-n3cccn3)cc2[nH]1)Nc1ccc(Cl)cc1 [Compound 116],> 10 µM,0.1 to 1 µM,,
O=C(CSc1nc2ccc(Cl)cc2[nH]1)Nc1ccc(Cl)cc1 [Compound 137],< 1 µM,0.1 to 1 µM,,
N#Cc1ccc(NC(=O)CSc2nc3cc(Br)ccc3[nH]2)cc1 [Compound 96],< 1 µM,< 0.1 µM,,
O=C(CSc1nc2cc(F)ccc2[nH]1)Nc1ccc(Cl)cc1 [Compound 110],1 to 5 µM,0.1 to 1 µM,,
N#Cc1ccc(NC(=O)CSc2nc3cc(F)ccc3[nH]2)cc1 [Compound 57],1 to 5 µM,0.1 to 1 µM,,
O=C(CSc1nc2cc(C(F)(F)F)ccc2[nH]1)Nc1ccc(Cl)cc1 [Compound 105],< 1 µM,0.1 to 1 µM,,
"O=C(CCc1nc2ccc(Cl)cc2s1)Nc1ccc(Oc2cccnc2)cc1 [Compound 86, 3-(6-Chlorobenzo[d]thiazol-2-yl)-N-(4-(pyridin-3-yloxy)phenyl)propanamide]",> 10 µM,0.1 to 1 µM,,
"O=C(CSc1nc2cc(Cl)ccc2[nH]1)Nc1ccc(Oc2ccc(Cl)nc2)cc1 [Compound 84, 2-((5-chloro-1H-benzo[d]imidazol-2-yl)thio)-N-(4-((6-chloropyridin-3-yl)oxy)phenyl)acetamide]",< 1 µM,< 0.1 µM,,
N#Cc1ccc(NC(=O)CSc2nc3cc(C(F)(F)F)ccc3[nH]2)cc1 [Compound 56],< 1 µM,< 0.1 µM,,
"O=C(CNc1nc2cc(Cl)ccc2s1)Nc1ccc(Oc2cccnc2)cc1 [Compound 71, 2-((5-chlorobenzo[d]thiazol-2-yl)amino)-N-(4-(pyridin-3-yloxy)phenyl)acetamide]",1 to 5 µM,0.1 to 1 µM,,
N#Cc1ccc(NC(=O)CSc2nc3cc(Cl)ccc3[nH]2)cc1Cl [Compound 142],< 1 µM,0.1 to 1 µM,,
N#Cc1ccc2nc(SCC(=O)Nc3ccc(Cl)cc3)[nH]c2c1 [Compound 94],1 to 5 µM,0.1 to 1 µM,,
"O=C(CNc1nc2cc(Cl)ccc2o1)Nc1ccc(Oc2cccnc2)cc1 [Compound 74, 2-((5-chlorobenzo[d]oxazol-2-yl)amino)-N-(4-(pyridin-3-yloxy)phenyl)acetamide]",< 1 µM,0.1 to 1 µM,,
COc1ccc(NC(=O)CSc2nc3ccc(Cl)cc3[nH]2)cc1 [Compound 140],,0.1 to 1 µM,,
"O=C(CSc1nc2cc(Cl)ccc2[nH]1)Nc1ccc(Oc2cccnc2)cc1 [Compound 77, 2-((5-chloro-1H-benzo[d]imidazol-2-yl)thio)-N-(4-(pyridin-3-yloxy)phenyl)acetamide]",< 1 µM,< 0.1 µM,,
"O=C(CCc1nc2ccc(Cl)cc2[nH]1)Nc1ccc(Oc2cccnc2)cc1 [Compound 152, 3-(5-chloro-1H-benzo[d]imidazol-2-yl)-N-(4-(pyridin-3-yloxy)phenyl)propanamide]",< 1 µM,0.1 to 1 µM,,
"O=C(CCc1nc2cc(Cl)ccc2s1)Nc1ccc(Oc2cccnc2)cc1 [Compound 85, 3-(5-chlorobenzo[d]thiazol-2-yl)-N-(4-(pyridin-3-yloxy)phenyl)propanamide]",1 to 5 µM,0.1 to 1 µM,,
N#Cc1ccc(NC(=O)CSc2nc3cc(OC(F)F)ccc3[nH]2)cc1 [Compound 104],1 to 5 µM,0.1 to 1 µM,,
N#Cc1ccc(NC(=O)CSc2nc3cc(Br)ccc3o2)cc1 [Compound 147],< 1 µM,0.1 to 1 µM,,
2-((5-chloro-1H-benzo[d]imidazol-2-yl)thio)-N-(4-(pyrimidin-5-yloxy)phenyl)acetamide [Compound 79],,,< 1 µM,< 0.1 µM
"O=C(CSc1nc2cc(Cl)ccc2[nH]1)Nc1ccc(Oc2cccnc2Cl)cc1 [Compound 83, 2-((5-chloro-1H-benzo[d]imidazol-2-yl)thio)-N-(4-((2-chloropyridin-3-yl)oxy)phenyl)acetamide]",< 1 µM,< 0.1 µM,,
O=C(CSc1nc2cc(F)c(F)cc2[nH]1)Nc1ccc(Br)cc1 [Compound 126],,0.1 to 1 µM,,
O=C(CSc1nc2ccc(Br)cc2[nH]1)Nc1ccc(Cl)cc1 [Compound 145],< 1 µM,0.1 to 1 µM,,
N#Cc1ccc(NC(=O)CSc2nc3ccc(C#N)cc3[nH]2)cc1 [Compound 93],< 1 µM,0.1 to 1 µM,,
